Test results taken from the kinase profiling compilation of Christmann-Franck et al. (2016).

Columns and labels:
Assay in all cases: KINOMEscan competition binding
Settings in all cases: compound 10.0 µM
MYLK2 (human) = MYLK2 (human) (UniProt Q9H1R3)
CDKL3 (human) = CDKL3 (human) (UniProt Q8IVW4)
PIK3CA (human) = PIK3CA (human) (UniProt P42336)
TAOK3 (human) = TAOK3 (human) (UniProt Q9H2K8)
CDK9 (human) = CDK9 (human) (UniProt P50750)
CDKL5 (human) = CDKL5 (human) (UniProt O76039)
PIK3CB (human) = PIK3CB (human) (UniProt P42338)
LCK (human) = LCK (human) (UniProt P06239)
Sequence of LCK (human) (P06239 whole entry, looked up): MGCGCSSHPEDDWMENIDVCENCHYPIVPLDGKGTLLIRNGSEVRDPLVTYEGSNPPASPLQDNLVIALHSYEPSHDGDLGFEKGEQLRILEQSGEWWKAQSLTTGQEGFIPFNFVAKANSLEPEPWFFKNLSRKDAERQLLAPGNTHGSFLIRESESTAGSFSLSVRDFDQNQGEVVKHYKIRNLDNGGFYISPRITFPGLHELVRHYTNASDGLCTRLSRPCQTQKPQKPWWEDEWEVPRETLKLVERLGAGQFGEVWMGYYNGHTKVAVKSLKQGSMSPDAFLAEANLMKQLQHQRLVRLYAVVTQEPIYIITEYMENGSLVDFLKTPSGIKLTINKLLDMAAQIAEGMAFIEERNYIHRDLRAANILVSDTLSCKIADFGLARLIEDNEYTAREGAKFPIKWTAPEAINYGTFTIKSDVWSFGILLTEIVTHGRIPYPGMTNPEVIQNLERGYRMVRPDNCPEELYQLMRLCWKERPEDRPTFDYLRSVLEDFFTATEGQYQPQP

EPHA4 (human) = EPHA4 (human) (UniProt P54764)
[1] = system: LRRK2 (human), Q5S007 [G2019S]
TBK1 (human) = TBK1 (human) (UniProt Q9UHD2)
Sequence of TBK1 (human) (Q9UHD2 whole entry, looked up): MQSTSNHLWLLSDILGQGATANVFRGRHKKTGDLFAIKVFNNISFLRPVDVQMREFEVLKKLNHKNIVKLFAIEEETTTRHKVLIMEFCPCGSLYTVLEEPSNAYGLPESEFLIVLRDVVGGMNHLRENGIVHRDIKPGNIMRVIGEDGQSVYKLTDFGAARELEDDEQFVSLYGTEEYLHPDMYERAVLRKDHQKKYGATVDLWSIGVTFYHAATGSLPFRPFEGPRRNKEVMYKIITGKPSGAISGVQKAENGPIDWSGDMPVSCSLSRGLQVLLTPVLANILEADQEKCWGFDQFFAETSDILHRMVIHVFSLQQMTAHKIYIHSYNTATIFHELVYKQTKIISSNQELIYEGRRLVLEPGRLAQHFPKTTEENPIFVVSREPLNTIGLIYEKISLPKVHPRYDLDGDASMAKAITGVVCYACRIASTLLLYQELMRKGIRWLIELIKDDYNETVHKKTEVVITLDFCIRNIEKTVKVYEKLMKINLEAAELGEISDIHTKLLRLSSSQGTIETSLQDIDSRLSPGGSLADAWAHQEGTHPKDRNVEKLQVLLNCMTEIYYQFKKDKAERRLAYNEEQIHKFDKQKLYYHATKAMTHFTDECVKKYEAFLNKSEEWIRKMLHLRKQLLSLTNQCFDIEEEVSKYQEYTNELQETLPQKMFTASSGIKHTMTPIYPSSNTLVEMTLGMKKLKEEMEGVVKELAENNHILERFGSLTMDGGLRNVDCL

STK17B (human) = STK17B (human) (UniProt O94768)
Sequence of STK17B (human) (O94768 whole entry, looked up): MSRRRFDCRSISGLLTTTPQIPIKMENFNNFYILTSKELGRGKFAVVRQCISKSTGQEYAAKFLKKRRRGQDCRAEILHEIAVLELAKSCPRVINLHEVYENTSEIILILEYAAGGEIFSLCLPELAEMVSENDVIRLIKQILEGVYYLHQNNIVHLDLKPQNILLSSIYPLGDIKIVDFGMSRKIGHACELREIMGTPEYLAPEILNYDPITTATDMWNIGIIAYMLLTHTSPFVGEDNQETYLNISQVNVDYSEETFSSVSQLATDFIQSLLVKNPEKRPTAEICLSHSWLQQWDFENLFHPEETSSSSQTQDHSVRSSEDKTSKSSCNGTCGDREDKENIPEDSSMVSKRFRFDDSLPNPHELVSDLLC

PTK2 (human) = PTK2 (human) (UniProt Q05397)
TTK (human) = TTK (human) (UniProt P33981)
STK36 (human) = STK36 (human) (UniProt Q9NRP7)
CDK15 (human) = CDK15 (human) (UniProt Q96Q40)
DCLK2 (human) = DCLK2 (human) (UniProt Q8N568)
RPS6KA5 KD1 (human) = RPS6KA5 KD1 (human) (UniProt O75582)
CDC42BPG (human) = CDC42BPG (human) (UniProt Q6DT37)
MST4 (human) = MST4 (human) (UniProt Q9P289)
MAP2K3 (human) = MAP2K3 (human) (UniProt P46734)
CSNK1D (human) = CSNK1D (human) (UniProt P48730)
PIK3CG (human) = PIK3CG (human) (UniProt P48736)
IRAK4 (human) = IRAK4 (human) (UniProt Q9NWZ3)
MAPK6 (human) = MAPK6 (human) (UniProt Q16659)
CHUK (human) = CHUK (human) (UniProt O15111)
MTOR (human) = MTOR (human) (UniProt P42345)
PIM3 (human) = PIM3 (human) (UniProt Q86V86)
CLK1 (human) = CLK1 (human) (UniProt P49759)
MAP3K5 (human) = MAP3K5 (human) (UniProt Q99683)
PDGFRB (human) = PDGFRB (human) (UniProt P09619)
CDK13 (human) = CDK13 (human) (UniProt Q14004)
RPS6KA2 KD1 (human) = RPS6KA2 KD1 (human) (UniProt Q15349)
HIPK4 (human) = HIPK4 (human) (UniProt Q8NE63)
Sequence of HIPK4 (human) (Q8NE63 whole entry, looked up): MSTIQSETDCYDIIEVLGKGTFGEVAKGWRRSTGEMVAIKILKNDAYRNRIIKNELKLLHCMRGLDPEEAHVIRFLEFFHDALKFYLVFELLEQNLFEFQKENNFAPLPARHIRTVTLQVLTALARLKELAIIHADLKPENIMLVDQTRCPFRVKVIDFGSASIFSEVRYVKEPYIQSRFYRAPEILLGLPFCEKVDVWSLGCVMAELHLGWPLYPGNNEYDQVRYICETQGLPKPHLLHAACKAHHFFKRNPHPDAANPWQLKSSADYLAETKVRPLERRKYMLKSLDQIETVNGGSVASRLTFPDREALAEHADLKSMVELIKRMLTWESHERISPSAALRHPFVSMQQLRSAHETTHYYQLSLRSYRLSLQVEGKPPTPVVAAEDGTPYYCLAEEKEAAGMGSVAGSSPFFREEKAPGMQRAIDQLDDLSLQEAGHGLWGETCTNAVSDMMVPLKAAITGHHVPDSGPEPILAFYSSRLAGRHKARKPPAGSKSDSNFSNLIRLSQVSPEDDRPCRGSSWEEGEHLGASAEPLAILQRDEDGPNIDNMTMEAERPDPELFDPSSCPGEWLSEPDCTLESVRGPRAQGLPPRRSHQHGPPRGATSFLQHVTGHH

CSNK1G1 (human) = CSNK1G1 (human) (UniProt Q9HCP0)
PDPK1 (human) = PDPK1 (human) (UniProt O15530)
CDK19 (human) = CDK19 (human) (UniProt Q9BWU1)
ZAP70 (human) = ZAP70 (human) (UniProt P43403)
PTK6 (human) = PTK6 (human) (UniProt Q13882)
STK32A (human) = STK32A (human) (UniProt Q8WU08)
Sequence of STK32A (human) (Q8WU08 whole entry, looked up): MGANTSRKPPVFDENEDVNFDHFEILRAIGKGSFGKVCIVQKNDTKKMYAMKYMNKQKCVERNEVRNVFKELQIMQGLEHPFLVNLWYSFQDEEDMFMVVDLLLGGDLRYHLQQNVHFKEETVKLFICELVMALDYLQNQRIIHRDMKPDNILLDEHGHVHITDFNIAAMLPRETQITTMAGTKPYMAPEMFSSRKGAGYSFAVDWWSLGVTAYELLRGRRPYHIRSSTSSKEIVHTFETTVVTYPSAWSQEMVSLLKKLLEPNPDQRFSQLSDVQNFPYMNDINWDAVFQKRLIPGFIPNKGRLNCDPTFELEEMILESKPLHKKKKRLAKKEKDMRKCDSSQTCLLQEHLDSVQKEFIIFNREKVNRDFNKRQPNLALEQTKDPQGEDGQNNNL

Sequence of PIK3CA (human) (P42336 whole entry, looked up): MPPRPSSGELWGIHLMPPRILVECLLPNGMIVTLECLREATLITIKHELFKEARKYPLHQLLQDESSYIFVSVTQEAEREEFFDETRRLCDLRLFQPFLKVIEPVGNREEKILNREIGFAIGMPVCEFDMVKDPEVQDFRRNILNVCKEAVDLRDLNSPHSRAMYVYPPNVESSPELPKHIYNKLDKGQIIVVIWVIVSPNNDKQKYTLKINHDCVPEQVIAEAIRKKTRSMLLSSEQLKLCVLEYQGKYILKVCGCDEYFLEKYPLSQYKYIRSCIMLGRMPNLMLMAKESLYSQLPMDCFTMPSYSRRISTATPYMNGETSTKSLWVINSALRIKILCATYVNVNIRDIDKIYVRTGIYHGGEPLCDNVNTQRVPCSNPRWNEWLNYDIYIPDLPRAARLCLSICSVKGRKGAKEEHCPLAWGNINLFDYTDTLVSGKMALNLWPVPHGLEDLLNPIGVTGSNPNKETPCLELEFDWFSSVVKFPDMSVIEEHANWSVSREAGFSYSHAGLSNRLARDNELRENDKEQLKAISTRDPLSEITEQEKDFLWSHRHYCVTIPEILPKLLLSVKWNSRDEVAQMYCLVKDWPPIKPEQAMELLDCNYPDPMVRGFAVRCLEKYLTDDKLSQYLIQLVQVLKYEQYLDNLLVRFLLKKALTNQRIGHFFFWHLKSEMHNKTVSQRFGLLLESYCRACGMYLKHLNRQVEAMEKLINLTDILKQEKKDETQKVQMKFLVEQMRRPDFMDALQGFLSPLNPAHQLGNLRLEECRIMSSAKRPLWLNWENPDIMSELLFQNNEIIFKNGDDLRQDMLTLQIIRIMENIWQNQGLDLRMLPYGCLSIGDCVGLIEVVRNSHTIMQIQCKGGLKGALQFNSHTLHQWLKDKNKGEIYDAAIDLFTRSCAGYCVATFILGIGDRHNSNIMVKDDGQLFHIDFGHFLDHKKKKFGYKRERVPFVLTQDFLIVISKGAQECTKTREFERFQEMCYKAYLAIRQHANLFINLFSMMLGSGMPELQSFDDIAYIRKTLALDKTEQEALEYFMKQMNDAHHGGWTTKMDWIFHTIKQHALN
Sequence of CDKL3 (human) (Q8IVW4 whole entry, looked up): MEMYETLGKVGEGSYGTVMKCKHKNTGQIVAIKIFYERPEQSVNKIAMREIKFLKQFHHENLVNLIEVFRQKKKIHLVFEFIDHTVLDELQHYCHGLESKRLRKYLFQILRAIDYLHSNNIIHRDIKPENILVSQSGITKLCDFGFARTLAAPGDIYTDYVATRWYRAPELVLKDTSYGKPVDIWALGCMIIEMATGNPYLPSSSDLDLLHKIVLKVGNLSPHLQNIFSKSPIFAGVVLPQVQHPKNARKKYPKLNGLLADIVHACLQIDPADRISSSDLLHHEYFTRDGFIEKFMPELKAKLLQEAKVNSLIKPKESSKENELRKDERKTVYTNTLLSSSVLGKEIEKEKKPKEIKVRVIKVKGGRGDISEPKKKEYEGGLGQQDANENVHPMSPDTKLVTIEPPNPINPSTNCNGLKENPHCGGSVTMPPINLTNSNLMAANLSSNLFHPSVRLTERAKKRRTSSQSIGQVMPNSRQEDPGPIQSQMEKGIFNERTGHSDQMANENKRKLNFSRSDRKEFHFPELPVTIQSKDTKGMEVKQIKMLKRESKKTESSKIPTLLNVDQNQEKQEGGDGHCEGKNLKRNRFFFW
Sequence of MYLK2 (human) (Q9H1R3 whole entry, looked up): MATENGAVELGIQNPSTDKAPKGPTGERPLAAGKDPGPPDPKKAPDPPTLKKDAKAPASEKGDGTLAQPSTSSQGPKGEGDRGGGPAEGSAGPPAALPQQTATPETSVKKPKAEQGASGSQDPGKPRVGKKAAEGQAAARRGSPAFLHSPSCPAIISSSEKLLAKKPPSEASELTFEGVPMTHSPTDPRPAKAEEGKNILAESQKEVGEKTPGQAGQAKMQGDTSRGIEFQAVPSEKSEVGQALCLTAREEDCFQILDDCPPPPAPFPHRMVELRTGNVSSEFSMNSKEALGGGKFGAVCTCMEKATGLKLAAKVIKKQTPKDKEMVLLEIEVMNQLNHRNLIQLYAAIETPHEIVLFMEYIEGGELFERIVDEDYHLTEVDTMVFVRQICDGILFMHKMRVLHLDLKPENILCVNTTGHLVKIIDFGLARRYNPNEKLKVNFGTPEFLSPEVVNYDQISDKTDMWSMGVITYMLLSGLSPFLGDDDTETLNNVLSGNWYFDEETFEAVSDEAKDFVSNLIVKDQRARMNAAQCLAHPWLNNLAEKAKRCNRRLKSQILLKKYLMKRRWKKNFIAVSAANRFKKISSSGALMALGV

## C=CC(=O)Nc1ccc(C(=O)c2sc(Nc3ccc(N4CCN(C)CC4)cc3OC)nc2N)cc1
MYLK2 (human)
  kinase still bound, per cent of control: 66%
CDKL3 (human)
  kinase still bound, per cent of control: 100%
PIK3CA (human)
  kinase still bound, per cent of control: 95%
TAOK3 (human)
  kinase still bound, per cent of control: 23%
CDK9 (human)
  kinase still bound, per cent of control: 85%
CDKL5 (human)
  kinase still bound, per cent of control: 74%
PIK3CB (human)
  kinase still bound, per cent of control: 86%
LCK (human)
  kinase still bound, per cent of control: 89%
EPHA4 (human)
  kinase still bound, per cent of control: 96%
[1]
  kinase still bound, per cent of control: 1.5%
TBK1 (human)
  kinase still bound, per cent of control: 100%
STK17B (human)
  kinase still bound, per cent of control: 100%
PTK2 (human)
  kinase still bound, per cent of control: 51%
TTK (human)
  kinase still bound, per cent of control: 0.7%
STK36 (human)
  kinase still bound, per cent of control: 90%
CDK15 (human)
  kinase still bound, per cent of control: 87%
DCLK2 (human)
  kinase still bound, per cent of control: 28%
RPS6KA5 KD1 (human)
  kinase still bound, per cent of control: 100%
CDC42BPG (human)
  kinase still bound, per cent of control: 93%
MST4 (human)
  kinase still bound, per cent of control: 99%
MAP2K3 (human)
  kinase still bound, per cent of control: 69%
CSNK1D (human)
  kinase still bound, per cent of control: 72%
PIK3CG (human)
  kinase still bound, per cent of control: 96%
IRAK4 (human)
  kinase still bound, per cent of control: 92%
MAPK6 (human)
  kinase still bound, per cent of control: 90%
CHUK (human)
  kinase still bound, per cent of control: 59%
MTOR (human)
  kinase still bound, per cent of control: 90%
PIM3 (human)
  kinase still bound, per cent of control: 87%
CLK1 (human)
  kinase still bound, per cent of control: 0.55%
MAP3K5 (human)
  kinase still bound, per cent of control: 100%
PDGFRB (human)
  kinase still bound, per cent of control: 54%
CDK13 (human)
  kinase still bound, per cent of control: 100%
RPS6KA2 KD1 (human)
  kinase still bound, per cent of control: 97%
HIPK4 (human)
  kinase still bound, per cent of control: 4.6%
CSNK1G1 (human)
  kinase still bound, per cent of control: 18%
PDPK1 (human)
  kinase still bound, per cent of control: 100%
CDK19 (human)
  kinase still bound, per cent of control: 100%
ZAP70 (human)
  kinase still bound, per cent of control: 20%
PTK6 (human)
  kinase still bound, per cent of control: 80%
STK32A (human)
  kinase still bound, per cent of control: 52%

## CNC(=O)Nc1ccc(-c2nc(N3CC4CCC(C3)O4)c3cnn(C4CCC5(CC4)OCCO5)c3n2)cc1
MYLK2 (human)
  kinase still bound, per cent of control: 100%
CDKL3 (human)
  kinase still bound, per cent of control: 95%
PIK3CA (human)
  kinase still bound, per cent of control: 16%
TAOK3 (human)
  kinase still bound, per cent of control: 90%
CDK9 (human)
  kinase still bound, per cent of control: 100%
CDKL5 (human)
  kinase still bound, per cent of control: 79%
PIK3CB (human)
  kinase still bound, per cent of control: 46%
LCK (human)
  kinase still bound, per cent of control: 100%
EPHA4 (human)
  kinase still bound, per cent of control: 100%
[1]
  kinase still bound, per cent of control: 65%
TBK1 (human)
  kinase still bound, per cent of control: 82%
STK17B (human)
  kinase still bound, per cent of control: 100%
PTK2 (human)
  kinase still bound, per cent of control: 78%
TTK (human)
  kinase still bound, per cent of control: 100%
STK36 (human)
  kinase still bound, per cent of control: 96%
CDK15 (human)
  kinase still bound, per cent of control: 100%
DCLK2 (human)
  kinase still bound, per cent of control: 97%
RPS6KA5 KD1 (human)
  kinase still bound, per cent of control: 86%
CDC42BPG (human)
  kinase still bound, per cent of control: 84%
MST4 (human)
  kinase still bound, per cent of control: 70%
MAP2K3 (human)
  kinase still bound, per cent of control: 89%
CSNK1D (human)
  kinase still bound, per cent of control: 92%
PIK3CG (human)
  kinase still bound, per cent of control: 72%
IRAK4 (human)
  kinase still bound, per cent of control: 100%
MAPK6 (human)
  kinase still bound, per cent of control: 85%
CHUK (human)
  kinase still bound, per cent of control: 100%
MTOR (human)
  kinase still bound, per cent of control: 5.7%
PIM3 (human)
  kinase still bound, per cent of control: 100%
CLK1 (human)
  kinase still bound, per cent of control: 29%
MAP3K5 (human)
  kinase still bound, per cent of control: 85%
PDGFRB (human)
  kinase still bound, per cent of control: 89%
CDK13 (human)
  kinase still bound, per cent of control: 84%
RPS6KA2 KD1 (human)
  kinase still bound, per cent of control: 100%
HIPK4 (human)
  kinase still bound, per cent of control: 100%
CSNK1G1 (human)
  kinase still bound, per cent of control: 54%
PDPK1 (human)
  kinase still bound, per cent of control: 76%
CDK19 (human)
  kinase still bound, per cent of control: 100%
ZAP70 (human)
  kinase still bound, per cent of control: 83%
PTK6 (human)
  kinase still bound, per cent of control: 55%
STK32A (human)
  kinase still bound, per cent of control: 99%
